Measurements taken from patent US12215363B2, “Balanced indels” (Keygene N.V., priority 2017, dated 2025).

Assays:
tomato protoplasts = assay: Recovery of chlorsulfuron resistant calli after transfection of tomato protoplasts; format: cell-based, Solanum lycopersicon var Moneyberg; settings: ALS1/ALS2 alleles sequenced from chlorsulfuron resistant calli versus alleles seen only in protoplast sequence data
Method: (§1) For the protoplast transfections 10 μg of KG9387 and 20 μg of one of the sgRNA expressing plasmids (KG10177, KG10190, KG10191, KG10240) mixed with 500 μL (500000 protoplasts) of the protoplast suspension and 500 μL of PEG solution (400 g/l poly(ethylene glycol) 4000, Sigma-Aldrich #81240; 0.1M Ca(NO3)2) was then added and the transfection was allowed to take place for 20 minutes at room temperature. Control samples were also produced by omitting one or both of the plasmids from the transfection. Then, 10 mL of 0.275 M Ca(NO3)2 solution was added and thoroughly, but gently mixed in. The protoplasts were harvested by centrifugation for 5 minutes at 800 rpm and resuspended in 9M culture medium at a density of 0.5×10^6 per ml and transferred to a 4 cm diameter petri dish and an equal volume of 2% alginate solution (20 g/l Alginate-Na (Sigma-Aldrich #A0682), 0.14 g/l CaCl2.2H2O, 90 g/l mannitol) was added. […]
(§2) Total genomic DNA was isolated from tomato protoplasts (48 hrs post transfection) using the DNeasy Plant Mini Kit (Qiagen). […] After sequencing the reads derived from each sample were processed to identify the number and types of sequence changes present at the target site. […]

[1] = test system: ALS1/ALS2 target sequence; assay: Indel formation at the ALS1/ALS2 target sites in transfected tomato protoplasts (amplicon sequencing, MiSeq); format: cell-based, Solanum lycopersicon var Moneyberg; settings: genomic DNA 48 hours after transfection
Method: as §1, §2

“GQVPGGLMIGT: ALS amino acid change from other pairs of indels in the sequence data, not recovered in resistant calli” was tested, and the “Chlorsulfuron resistance phenotype of the altered ALS allele (in words)” value (tomato protoplasts) was “not resistance alleles”.

“GRRGGLIGT: ALS amino acid change from other pairs of indels in the sequence data, not recovered in resistant calli” was tested, and the “Chlorsulfuron resistance phenotype of the altered ALS allele (in words)” value (tomato protoplasts) was “not resistance alleles”.

B1: KG10240: cassette (SEQ ID NO. 28) expressing all sgRNAs of KG10177, KG10190 and KG10191 separated by tRNA sequences (nucleic acid)
DNA: GGAGTGATCAAAAGTCCCACATCGATCAGGTGATATATAGCAGCTTAGTTTATATAATGATAGAGTCGACATAGCGATTGAACAAAGCACCAGTGGTCTAGTGGTAGAATAGTACCCTGCCACGGTACAGACCCGGGTTCGATTCCCGGCTGGTGCACAAGTGCCGAGGAGGATGATGTTTTAGAGCTAGAAATAGCAAGTTAAAATAAGGCTAGTCCGTTATCAACTTGAAAAAGTGGCACCGAGTCGGTGCAACAAAGCACCAGTGGTCTAGTGGTAGAATAGTACCCTGCCACGGTACAGACCCGGGTTCGATTCCCGGCTGGTGCACATCCTCCTCGGCACTTGACGTTTTAGAGCTAGAAATAGCAAGTTAAAATAAGGCTAGTCCGTTATCAACTTGAAAAAGTGGCACCGAGTCGGTGCAACAAAGCACCAGTGGTCTAGTGGTAGAATAGTACCCTGCCACGGTACAGACCCGGGTTCGATTCCCGGCTGGTGCATTACCGGTCAAGTGCCGAGGGTTTTAGAGCTAGAAATAGCAAGTTAAAATAAGGCTAGTCCGTTATCAACTTGAAAAAGTGGCACCGAGTCGGTGCTTTTTTTCTAGACCCAGCTTTCTTGTACAAAGTTGGCATTACGCT
modifications: KG10240
B1 was tested, and the “Sequence reads with indels at ALS1 and ALS2 target sites (in words)” value [1] was “resulted in reads that contained more than one indel”.
